Laboratory results: paper PMC11499995 (Communications Biology, 2024)

Molecular target: T1, mNeonGreen (Branchiostoma lanceolatum, UniProt A0A1S4NYF2, C173I/S175A/W191I)
T1 sequence (A0A1S4NYF2 25-260 C173I/S175A/W191I): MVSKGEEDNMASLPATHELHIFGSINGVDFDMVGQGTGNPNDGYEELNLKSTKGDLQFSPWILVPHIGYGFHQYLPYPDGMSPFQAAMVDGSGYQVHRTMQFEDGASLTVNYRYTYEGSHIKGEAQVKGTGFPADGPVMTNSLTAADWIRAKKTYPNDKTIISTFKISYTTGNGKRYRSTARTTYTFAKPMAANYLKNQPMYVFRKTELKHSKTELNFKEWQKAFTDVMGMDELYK
Assay: fluorescence quenching titration, purified protein
Assay type: binding

Compound O=S(=O)(O)O [sulfate] has a Kd of 33 ± 3 mM.
